Experimental data: patent US8481597B2, “Use of (-) (3-trihalomethylphenoxy) (4-halophenyl) acetic acid derivatives for treatment of insulin resistance, type 2 diabetes, hyperlipidemia and hyperuricemia” (Metabolex, Inc., priority 1999, dated 2013)
Where “and” joins values, the source holds several entries; their conditions need not be identical. Equal values may be shown once. Entries after “also recorded” stand apart in the source; their conditions may differ.

Assays:
C57BL/6J ob/ob mice [1] = assay: Time course of glucose-lowering after a single oral dose in diabetic ob/ob mice (Example 8); format: in vivo; settings: single oral dose 250 mg/kg; for time course of glucose-lowering, in words: 250 mg/kg
C57BL/6J ob/ob mice [2] = assay: Glucose and insulin lowering on daily oral administration in diabetic ob/ob mice (Example 9); format: in vivo
Method: The gavage volume was 10 ml/kg.

Zucker fa/fa rats [3] = assay: Oral glucose challenge in Zucker fatty rats (Example 10); format: in vivo
Method: (§1) Prior to treatment, rats were assigned to 6 groups based on body weight. Each treatment group consisted of 8 rats. […] The gavage volume was 10 ml/kg. All rats received an oral glucose challenge (1.9 g/kg) 5.5 hours after the treatment and 4 hours after withdrawal of the food. Blood samples were taken at 0, 15, 30, 60, 90, 120, and 180 minutes following the glucose challenge for plasma glucose measurement. […] On day 5, rats received the intravenous insulin (0.75 U/kg) 5.5 hours after the last dose and 4 hours after withdrawal of the food. Blood samples were taken at 3, 6, 9, 12, 15 and 18 minutes following the insulin injection for plasma glucose measurement.

Zucker fa/fa rats [4] = assay: Short insulin tolerance test in Zucker fatty rats (Example 10); format: in vivo; settings: 50 mg/kg/day oral for 5 days
Method: as §1

[5] = test system: Zucker diabetic fatty (ZDF) rats; assay: Lipid lowering in Zucker Diabetic Fatty rats (Example 11); format: in vivo; settings: for plasma cholesterol, in words: Experiment I, 13 days, racemate 50 mg/kg/day, enantiomers 25 mg/kg/day; for plasma cholesterol lowering, in words / plasma triglyceride, in words: 37.5 mg/kg/day (High dose), 37.5 mg/kg/day
Method: Male Zucker diabetic fatty (ZDF) rats were obtained from GMI Laboratories (Indianapolis, Ind.) at 9 weeks of age. Vehicle or enantiomers of halofenate administered by oral gavage on a daily basis starting at 74 days of age. Initial blood samples were obtained for analysis one day before treatment and at the indicated times in the treatment protocol. Blood was analyzed for plasma triglyceride and cholesterol by standard techniques.

ZDF rats = assay: Plasma glucose in ZDF rats, (−) halofenate vs (+) halofenate (Example 13); format: in vivo; settings: 50 mg/kg oral once a day for 3 days
Method: Male 8-9 week old ZDF rats were purchased from Genetic Models, Inc. (Indianapolis, Ind.). […] Rats that had 4-hour fasting plasma glucose levels between 200 and 500 mg/dL were used. […] The gavage volume was 5 ml/kg. Blood samples were taken at 5 hours post dose on day 2 and 3.

[6] = Pharmacokinetic study of (±) halofenate and (−) halofenate in SD rats (Example 14); format: in vivo; settings: single oral (−) halofenate 50 mg/kg, Rats 8, 9, 11 individually, BQL <1.00 μg/mL
Method: Male 225-250 g SD rats were purchased from Charles River. […] A catheter was placed in the left carotid artery under sodium pentobarbital (50 mg/kg i.p.) and animals were allowed to recover for 2 days before treatment. […] The gavage volume was 5 ml/kg. Blood samples were collected at 1, 2, 4, 6, 8, 12, 24, 48, 72, 96 and 120 hours post dose. The plasma samples were analyzed for each enantiomeric acid ((−) halofenic acid and (+) halofenic acid) by a chiral specific HPLC assay, since the esters are prodrugs, which are designed to convert to their respective enantiomeric acids in vivo.

[7] = test system: oxonic acid induced hyperuricemic rats; assay: Plasma uric acid in oxonic acid induced hyperuricemic rats (Example 17); format: in vivo, SD rats; settings: oral 50 mg/kg for 3 days, 100 mg/kg on the 4th day; blood 6 hours post gavage on day 4
Text: Male SD rats, weight 275-300 g were purchased from Charles River. […] To establish a hyperuricemic state, animals were put on a diet containing 2.5% (w/w) of oxonic acid (Sigma Chemical Co, St. Louis, Mo., USA) throughout the experiment. Oxonic acid elevates plasma uric acid by inhibiting uricase. Rats were screened for plasma uric acid levels 3 days after they were placed on the diet, and those that had extreme plasma uric acid levels were excluded. Rats were assigned to one of three groups and the mean uric acid levels were equivalent in each group. […] Oxonic acid was delivered in a liquid formulation containing 0.9% (w/v) methylcellulose. The gavage and injection volumes were 5 ml/kg. Blood samples were taken at 6 hours post oral gavage on day 4. Plasma uric acid levels were determined colorimetrically using the Infinity Uric Acid Reagent (Sigma Chemical Co, St. Louis, Mo., USA).

cyclooxygenase 1 (COX-1) = molecular target: T1, cyclooxygenase 1 (COX-1) (Homo sapiens, UniProt P23219); assay: COX-1 inhibition in human whole blood assay, TXB2 production (Example 19); format: cell-based
T1 construct: was conducted using fresh human blood from healthy donors; endogenous in cells; host or cells: heparinized fresh human whole blood, stimulated with calcium ionophore A23187
T1 sequence (P23219 24-599): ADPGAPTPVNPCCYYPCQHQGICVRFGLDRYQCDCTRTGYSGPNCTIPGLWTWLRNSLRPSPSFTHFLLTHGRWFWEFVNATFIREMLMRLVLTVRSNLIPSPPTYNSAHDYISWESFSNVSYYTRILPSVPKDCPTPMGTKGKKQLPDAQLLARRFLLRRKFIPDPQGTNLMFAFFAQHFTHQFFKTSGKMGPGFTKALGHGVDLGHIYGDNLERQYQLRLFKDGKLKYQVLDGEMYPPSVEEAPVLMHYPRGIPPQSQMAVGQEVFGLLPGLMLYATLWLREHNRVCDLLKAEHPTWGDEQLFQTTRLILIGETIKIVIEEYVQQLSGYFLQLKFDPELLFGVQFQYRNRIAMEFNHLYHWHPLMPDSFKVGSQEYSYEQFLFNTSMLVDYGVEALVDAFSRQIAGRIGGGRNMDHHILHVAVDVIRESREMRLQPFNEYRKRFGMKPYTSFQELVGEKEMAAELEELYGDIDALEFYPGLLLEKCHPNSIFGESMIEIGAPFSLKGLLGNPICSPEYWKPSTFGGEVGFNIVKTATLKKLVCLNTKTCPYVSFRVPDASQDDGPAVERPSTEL
Method: An assay for cyclooxygenase 1 (COX-1) inhibition by the compounds of the present invention was conducted using fresh human blood from healthy donors. […] The enzyme was activated by the commercially available calcium ionophore A23187.
This bioassay is based on the production of thromboxane B2 (TXB2) after COX-1 activation. When activated, COX-1 generates prostaglandin H2 which is then converted to thromboxane A2 (TXA2) by thromboxane synthase and then finally to thromboxane B2 by non-enzymatic […]. In addition, PGE2 levels were measured to exclude inhibition of thromboxane synthase. This assay allows discrimination between COX-1 and thromboxane synthase inhibition.
TXB2 and PGE2 were measured by commercially available immunoassay kits purchased from Assay Designs, Inc. (Ann Arbor, Mich.). All other chemicals were from Sigma except as noted. […] Immediately before use, all compounds were diluted 1:10 in RPMI-1640 medium (Gibco BRL, 11875-093) to make a 10× concentrated stock solution. The 10×RPMI-1640 stock solutions of the calcium ionophore were prepared in an identical manner. […] COX-1 was then activated by adding 25 microliters of the 10× stock solution of 25 micromolar calcium ionophore. The plates were shaken for 10 minutes at room temperature and then incubated at 37° C. for an additional 30 minutes. After these incubation times, the plates were centrifuged at 2,000 g for 5 minutes. Two microliters of plasma were taken from each reaction for the measurement of TXB2 using an enzyme immunoassay kit from Assay Designs, Inc. The PGE2 level in the same reaction was measured using a PGE2 enzyme immunoassay kit from Assay Designs, Inc.
The results of the assay are presented as the percent inhibition of COX-1 activity.

[8] = daily oral, racemate 250 mg/kg/day, enantiomers 125 and 250 mg/kg/day
[9] = Experiment II, listed as (−) enantiomer

For `CC(=O)NCCOC(=O)C(Oc1cccc(C(F)(F)F)c1)c1ccc(Cl)cc1` (single isomer, unassigned; (-)) [(−) halofenate, (−) 2-acetamidoethyl 4-chlorophenyl-(3-trifluoromethylphenoxy)acetate], which “earliest time of plasma glucose reduction / significant activity” value (C57BL/6J ob/ob mice [1]) is on record?
The value was 1.5 h.

What about the “time of peak glucose-lowering activity” value (C57BL/6J ob/ob mice [1]) of the same compound?
Its value is 3 h.

And the “time course of glucose-lowering, in words” value (C57BL/6J ob/ob mice [1])?
The value was “more rapid onset and sustained longer”.

And the “time course of glucose-lowering, in words” value (C57BL/6J ob/ob mice [1]; listed as (−) enantiomer)?
Its value is “most rapid onset of action and the longest duration of action; also recorded: more effective and significantly different (p<0.05) from the (+) enantiomer at both the 3 hour and 24 hour time points”.

What about the “plasma glucose at 24 hours” value (C57BL/6J ob/ob mice [1]; vehicle 408±16.2) of the same compound?
The value was 217 ± 16.4 mg/dL.

And the “overnight fasting plasma insulin after 5 days treatment, in words” value (C57BL/6J ob/ob mice [2]; 125 mg/kg/day oral, ob/ob mice)?
The value was “Significantly lower plasma insulins”.

And the “time points after first dose with significantly reduced plasma insulin” value (C57BL/6J ob/ob mice [2]; 125 mg/kg/day oral, ob/ob mice)?
Its value is 27 h.

What about the “overnight fasting plasma insulin after 5 days treatment, in words” value (C57BL/6J ob/ob mice [2]; 250 mg/kg/day oral, ob/ob mice) of the same compound?
Its value is “Significantly lower plasma insulins”.

What about the “time points after first dose with significantly reduced plasma glucose” value (C57BL/6J ob/ob mice [2]; 250 mg/kg/day oral, ob/ob mice) of the same compound?
The value was 3 h.

What about the “time points after first dose with significantly reduced plasma insulin” value (C57BL/6J ob/ob mice [2]; 250 mg/kg/day oral, ob/ob mice) of the same compound?
Its value is 27 h and 30 h.

What about the “plasma glucose following an overnight fast after 5 days treatment” value (C57BL/6J ob/ob mice [2]; 250 mg/kg/day oral, ob/ob mice, control 185.4±12.3) of the same compound?
The value was 127.3 ± 8.0 mg/dL.

And the “plasma glucose relative to control animals, in words” value (C57BL/6J ob/ob mice [2]; [8])?
Its value is “Significant decreases in glucose levels”.

And the “plasma insulin relative to vehicle control, in words” value (C57BL/6J ob/ob mice [2]; [8])?
Its value is “insulins were lower”.

What about the “incremental glucose area under the curve (AUC) relative to vehicle control, in words” value (Zucker fa/fa rats [3]; racemate 100 mg/kg, enantiomers 50 and 100 mg/kg) of the same compound?
Its value is “significant reductions in the glucose area; also recorded: Significant changes (p<0.05)”.

What about the “plasma glucose after oral glucose challenge, in words” value (Zucker fa/fa rats [3]; single oral dose 100 mg/kg 5.5 hours before challenge) of the same compound?
The value was “greatest degree of glucose-lowering of all the treated animals”.

What about the “plasma glucose after oral glucose challenge, in words” value (Zucker fa/fa rats [3]; single oral dose 5.5 hours before challenge, racemate 100 mg/kg, enantiomers 50 and 100 mg/kg) of the same compound?
The value was “most effective in lowering the glucose; also recorded: lower glucose levels that persisted at 90-120 minutes”.

And the “insulin sensitivity (slope of decline in glucose after i.v. insulin), in words” value (Zucker fa/fa rats [4])?
Its value is “improved significantly; also recorded: significantly more insulin sensitive”.

And the “plasma cholesterol, in words” value [5]?
Its value is “significant decrease in plasma cholesterol”.

And the “plasma cholesterol, in words” value ([5]; listed as (−) enantiomer)?
Its value is “plasma cholesterol declined with treatment; also recorded: most active of the species tested”.

What about the “days of treatment with significantly lower plasma cholesterol vs control” value ([5]; Experiment II, 12.5 mg/kg/day (Low dose)) of the same compound?
The value was 7 days.

And the “plasma cholesterol lowering, in words” value ([5]; Experiment II)?
The value was “much greater decline in plasma cholesterol”.

What about the “plasma triglyceride, in words” value ([5]; Experiment II, listed as (−) enantiomer of halofenate) of the same compound?
The value was “greater magnitude”.

And the “plasma cholesterol lowering, in words” value [5, 9]?
The value was “greatest extent of cholesterol lowering”.

And the “plasma triglyceride, in words” value [5, 9]?
The value was “lowest triglyceride levels of all the treatment groups; also recorded: significant lowering of plasma triglyceride”.

What about the “plasma glucose concentrations compared to vehicle-treated animals, in words” value (ZDF rats) of the same compound?
The value was “significantly reduced plasma glucose concentrations”.

And the “Plasma concentration of (+) halofenic acid” value ([6]; time 0 hour)?
The value was “BQL”.

What about the “Plasma concentration of (−) halofenic acid” value ([6]; time 0 hour) of the same compound?
The value was “BQL”.

What about the “Plasma concentration of (+) halofenic acid” value ([6]; time 1 hour) of the same compound?
Its value is “BQL”.

What about the “Plasma concentration of (+) halofenic acid” value ([6]; time 2 hours) of the same compound?
The value was “BQL”.

What about the “Plasma concentration of (+) halofenic acid” value ([6]; time 4 hours) of the same compound?
The value was “BQL”.

And the “Plasma concentration of (+) halofenic acid” value ([6]; time 6 hours)?
The value was “BQL”.

What about the “Plasma concentration of (+) halofenic acid” value ([6]; time 8 hours) of the same compound?
Its value is “BQL”.

What about the “Plasma concentration of (+) halofenic acid” value ([6]; time 72 hours) of the same compound?
Its value is “BQL”.

What about the “Plasma concentration of (+) halofenic acid” value ([6]; time 96 hours) of the same compound?
The value was “BQL”.

And the “Plasma concentration of (+) halofenic acid” value ([6]; time 120 hours)?
Its value is “BQL”.

What about the “plasma uric acid levels, in words” value [7] of the same compound?
Its value is “significantly reduced plasma uric acid levels”.

What about the IC50 (cyclooxygenase 1 (COX-1); heparinized fresh human blood, calcium ionophore A23187, TXB2 readout, read-out: IC50, inhibition of the COX-1 enzyme in blood) of the same compound?
The IC50 was greater than 3 mM.

What about the “inhibition of COX-1, in words” value (cyclooxygenase 1 (COX-1); human whole blood assay) of the same compound?
Its value is “substantially weaker and ineffective inhibitor of the COX-1 enzyme; also recorded: much less effective than the racemate in inhibiting COX-1”.
